{
  "source": "patent US20220125051A1",
  "about": "“PRE-HARVEST DESICCATION METHOD” (SYNGENTA CROP PROTECTION AG, priority 2019, published 2022)",
  "format_in_all_cases": "in vivo",
  "key": {"[1]": {"system": "Amaranthus retroflexus (AMARE)", "assay": "Post-emergence efficacy, Method B", "settings": "read-out: Control of weed species after post-emergence application, AMARE", "method": "(§1) An “instant formulation”, known as the IF50, containing 50 g/L of the “technical” (i.e. unformulated) active ingredient was prepared by dissolving the active ingredient in a mixture of organic solvents and emulsifier, details of which are provided in the table. This IF50 was then mixed with a small, variable amount of acetone to aid dissolution, before addition of an aqueous solution of 1% v/v ammonium sulphate+1% v/v Empicol ESC70 (Sodium lauryl ether sulphate) adjuvant, as the aqueous diluent, to form an aqueous spray solution which contains a predetermined concentration of the active ingredient (which varies depending on the application rate of the active ingredient to the plants).\n(§2) This aqueous spray solution was then sprayed onto the plants, after about 12 days' cultivation. The plants were grown from seeds sown in standard soil, placed in a glasshouse under controlled conditions (at 24/18° C. or 20/16° C., day/night; 16 hours light; 65% humidity). After spray application the plants were then grown on in a glasshouse under the same conditions and watered twice daily. […] the test was evaluated (100=total damage to plant; 0=no damage to plant).\n(§3) Ipomoea hederacea (IPOHE), Euphorbia heterophylla (EPHHL), Chenopodium album (CHEAL), Amaranthus retroflexus (AMARE), Lolium perenne (LOLPE), Digitaria sanguinalis (DIGSA), Eleusine indica (ELEIN), Echinochloa crus-galli (ECHCG), Setaria faberi (SETFA)"}, "[2]": {"system": "Chenopodium album (CHEAL)", "assay": "Post-emergence efficacy, Method B", "settings": "read-out: Control of weed species after post-emergence application, CHEAL", "method": "as §1, §2, §3"}, "[3]": {"system": "Digitaria sanguinalis (DIGSA)", "assay": "Post-emergence efficacy, Method B", "settings": "read-out: Control of weed species after post-emergence application, DIGSA", "method": "as §1, §2, §3"}, "[4]": {"system": "Echinochloa crus-galli (ECHCG)", "assay": "Post-emergence efficacy, Method B", "settings": "read-out: Control of weed species after post-emergence application, ECHCG", "method": "as §1, §2, §3"}, "Eleusine indica (ELEIN)": {"system": "Eleusine indica (ELEIN)", "assay": "Post-emergence efficacy, Method B", "settings": "read-out: Control of weed species after post-emergence application, ELEIN", "method": "as §1, §2, §3"}, "[5]": {"system": "Euphorbia heterophylla (EPHHL)", "assay": "Post-emergence efficacy, Method B", "settings": "read-out: Control of weed species after post-emergence application, EPHHL", "method": "as §1, §2, §3"}, "[6]": {"system": "Ipomoea hederacea (IPOHE)", "assay": "Post-emergence efficacy, Method B", "settings": "read-out: Control of weed species after post-emergence application, IPOHE", "method": "as §1, §2, §3"}, "Lolium perenne (LOLPE)": {"system": "Lolium perenne (LOLPE)", "assay": "Post-emergence efficacy, Method B", "settings": "read-out: Control of weed species after post-emergence application, LOLPE", "method": "as §1, §2, §3"}, "Setaria faberi (SETFA)": {"system": "Setaria faberi (SETFA)", "assay": "Post-emergence efficacy, Method B", "settings": "read-out: Control of weed species after post-emergence application, SETFA", "method": "as §1, §2, §3"}, "Brassica napus (BRSNN)": {"system": "Brassica napus (BRSNN)", "assay": "Pre-harvest desiccation of crop plants", "settings": "Table E, evaluated after 7 and 14 days (which not stated), 100=total damage to plant, 0=no damage", "method": "(§4) Seeds of a variety of test species were sown in standard loam based soil in pots. After cultivation from between 21 and 28 days (post-emergence) under controlled conditions in a glasshouse (at 24/16° C., day/night; 14 hours light; 65% humidity) for warm climate species and (at 20/16° C. day/night; 15 hours light; 65% humidity) for cool climate species.\n(§5) The plants were sprayed with an aqueous spray solution derived from dissolving the technical active ingredient formula in a small amount of acetone and a special solvent and emulsifier mixture referred to as IF50 (11.12% Emulsogen EL360 TM+44.44% N-methylpyrrolidone+44.44% Dowanol DPM glycol ether), to create a 50 g/I solution which was then diluted to required concentration using a solution of 1% Empicol ESC70 (Sodium lauryl ether sulphate)+1% ammonium sulphate in water as diluent.\n(§6) The delivery of the aqueous spray solution was via a laboratory track sprayer which delivered the aqueous spray composition at a rate of 200 litres per hectare, using a flat fan nozzle (Teejet 11002VS) and an application volume of 200 litre/ha (at 2 bar).\n(§7) The test plants were then grown in a glasshouse under controlled conditions (at 24/16° C., day/night; 14 hours light; 65% humidity) for warm climate species and (at 20/16° C. day/night; 15 hours light; 65% humidity) for cool climate species and watered twice daily. After 7 and 14 days the test was evaluated (100=total damage to plant; 0=no damage to plant).\n(§8) A value of n/t indicates not tested.\n(§9) Glycine Max (GLXMA), Solanum turberosum (SOLTU), Gossypium hirsutum (GOSHI), Brassica napus (BRSNN), Helianthus annus (HELAN)"}, "Glycine Max (GLXMA)": {"system": "Glycine Max (GLXMA)", "assay": "Pre-harvest desiccation of crop plants", "settings": "Table E, evaluated after 7 and 14 days (which not stated), 100=total damage to plant, 0=no damage", "method": "as §4, §5, §6, §7, §8, §9"}, "[7]": {"system": "Gossypium hirsutum (GOSHI)", "assay": "Pre-harvest desiccation of crop plants", "settings": "Table E, evaluated after 7 and 14 days (which not stated), 100=total damage to plant, 0=no damage", "method": "as §4, §5, §6, §7, §8, §9"}, "[8]": {"system": "Solanum turberosum (SOLTU)", "assay": "Pre-harvest desiccation of crop plants", "settings": "Table E, evaluated after 7 and 14 days (which not stated), 100=total damage to plant, 0=no damage", "method": "as §4, §5, §6, §7, §8, §9"}, "[9]": {"settings": "Method B, 1000 g/Ha, 100=total damage to plant, 0=no damage"}},
  "note": "Where two headings read alike, the source gives them in different places.",
  "data": [
    {"smiles": "N[C@@H](CCC[n+]1ccc(-c2ncccn2)cn1)C(=O)O", "note": "[Compound A211, [(1S)-1-carboxy-4-(4-pyrimidin-2-ylpyridazin-1-ium-1-yl)butyl]ammonium dichloride]", "values": [
      {"measurement": "pest or weed control at 500 g/ha", "setting": "[1]", "value": 100, "unit": "%"},
      {"measurement": "pest or weed control at 500 g/ha", "setting": "[2]", "value": 90, "unit": "%"},
      {"measurement": "pest or weed control at 500 g/ha", "setting": "[3]", "value": 100, "unit": "%"},
      {"measurement": "pest or weed control at 500 g/ha", "setting": "[4]", "value": 100, "unit": "%"},
      {"measurement": "pest or weed control at 500 g/ha", "setting": "Eleusine indica (ELEIN)", "value": 100, "unit": "%"},
      {"measurement": "pest or weed control at 500 g/ha", "setting": "[5]", "value": 80, "unit": "%"},
      {"measurement": "pest or weed control at 500 g/ha", "setting": "[6]", "value": 100, "unit": "%"},
      {"measurement": "pest or weed control at 500 g/ha", "setting": "Lolium perenne (LOLPE)", "value": 10, "unit": "%"},
      {"measurement": "pest or weed control at 500 g/ha", "setting": "Setaria faberi (SETFA)", "value": 100, "unit": "%"}
    ]},
    {"smiles": "N#C[N-]C(=O)CC[n+]1ccc(-c2ncccn2)cn1", "note": "[Compound A226]", "values": [
      {"measurement": "pest or weed control at 1000 g/ha", "setting": "[1]; [9]", "value": 100, "unit": "%"},
      {"measurement": "pest or weed control at 1000 g/ha", "setting": "[2]; [9]", "value": 100, "unit": "%"},
      {"measurement": "pest or weed control at 1000 g/ha", "setting": "[3]; [9]", "value": 100, "unit": "%"},
      {"measurement": "pest or weed control at 1000 g/ha", "setting": "[4]; [9]", "value": 100, "unit": "%"},
      {"measurement": "pest or weed control at 1000 g/ha", "setting": "[6]; [9]", "value": 100, "unit": "%"},
      {"measurement": "pest or weed control at 1000 g/ha", "setting": "Lolium perenne (LOLPE); [9]", "value": 70, "unit": "%"},
      {"measurement": "pest or weed control at 1000 g/ha", "setting": "Setaria faberi (SETFA); [9]", "value": 70, "unit": "%"}
    ]},
    {"smiles": "O=S(=O)([O-])CC[n+]1ccc(-c2cccnn2)cn1", "note": "[Compound A213, 2-(4-pyridazin-1-ium-3-ylpyridazin-1-ium-1-yl)ethanesulfonate chloride]", "values": [
      {"measurement": "pest or weed control at 1000 g/ha", "setting": "[1]", "value": 100, "unit": "%"},
      {"measurement": "pest or weed control at 1000 g/ha", "setting": "[2]", "value": 80, "unit": "%"},
      {"measurement": "pest or weed control at 1000 g/ha", "setting": "[3]", "value": 100, "unit": "%"},
      {"measurement": "pest or weed control at 1000 g/ha", "setting": "[4]", "value": 100, "unit": "%"},
      {"measurement": "pest or weed control at 1000 g/ha", "setting": "Eleusine indica (ELEIN)", "value": 100, "unit": "%"},
      {"measurement": "pest or weed control at 1000 g/ha", "setting": "[5]", "value": 100, "unit": "%"},
      {"measurement": "pest or weed control at 1000 g/ha", "setting": "[6]", "value": 80, "unit": "%"},
      {"measurement": "pest or weed control at 1000 g/ha", "setting": "Lolium perenne (LOLPE)", "value": 90, "unit": "%"},
      {"measurement": "pest or weed control at 1000 g/ha", "setting": "Setaria faberi (SETFA)", "value": 100, "unit": "%"}
    ]},
    {"smiles": "O=S(=O)([O-])CC[n+]1ccc(-c2ncccn2)cn1", "note": "[Compound A1, 2-(4-pyrimidin-2-ylpyridazin-1-ium-1-yl)ethanesulfonate]", "values": [
      {"measurement": "Post-emergence dessication efficacy, BRSNN", "setting": "Brassica napus (BRSNN); 150 g/Ha", "value": 33},
      {"measurement": "Post-emergence dessication efficacy, BRSNN", "setting": "Brassica napus (BRSNN); 300 g/Ha", "value": 55},
      {"measurement": "Post-emergence dessication efficacy, BRSNN", "setting": "Brassica napus (BRSNN); 600 g/Ha", "value": 70},
      {"measurement": "Post-emergence dessication efficacy, GLXMA", "setting": "Glycine Max (GLXMA); 150 g/Ha", "value": 68},
      {"measurement": "Post-emergence dessication efficacy, GLXMA", "setting": "Glycine Max (GLXMA); 300 g/Ha", "value": 94},
      {"measurement": "Post-emergence dessication efficacy, GLXMA", "setting": "Glycine Max (GLXMA); 600 g/Ha", "value": 98},
      {"measurement": "Post-emergence dessication efficacy, GOSHI", "setting": "[7]; 150 g/Ha", "value": 99},
      {"measurement": "Post-emergence dessication efficacy, GOSHI", "setting": "[7]; 300 g/Ha", "value": 98},
      {"measurement": "Post-emergence dessication efficacy, GOSHI", "setting": "[7]; 600 g/Ha", "value": 96},
      {"measurement": "Post-emergence dessication efficacy, SOLTU", "setting": "[8]; 150 g/Ha", "value": 38},
      {"measurement": "Post-emergence dessication efficacy, SOLTU", "setting": "[8]; 300 g/Ha", "value": 90},
      {"measurement": "Post-emergence dessication efficacy, SOLTU", "setting": "[8]; 600 g/Ha", "value": 60}
    ]}
  ]
}
